Results taken from US7749526B2, “Vermin-repellant compositions and compounds” (Novartis AG, priority 2002, dated 2010).

Experiments:
[1] = system: ticks of the genus Ixodes ricinus; experiment: In-vivo comparison on dogs of anti-tick action following spray application; conditions: Beagle dogs; for anti-tick activity in the course of 3 successive days (in words): single spray application
From the text: In-vivo comparison on dogs in respect of the anti-tick action of 2-propyl-pentanoic acid-bis-(2-methoxyethyl)-amide according to the present invention with DEET (in the form of PARAPIC DOG® (a tick repellent containing DEET)) following spray application.
The following formulations of active ingredient are used in the test which follows: […]
Prior art composition of the Parapic anti-tick spray: • active substance: 15% N,N-Diethyl-3-methylbenzamide (DEET); 15% • ethylbutylacetylaminopropionate (EBMP), isopropanol, methacrylic acid copolymer, carbamide, fragrance (perfume).
Inventive composition of the 2-propyl-pentanoic acid-bis-(2-methoxyethyl )-amide spray: active substance: 2-propyl-pentanoic acid-bis-(2-methoxyethyl )-amide 4.5%; Pluronic F6® 2.0%; water 10.0%, isopropanol ad 100.0%.
The aim of the test is to make a comparison, under natural conditions, of the commercially available anti-vermin product Parapic Dog® with a typical representative of a compound of formula (I), namely 2-propyl-pentanoic acid-bis-(2-methoxyethyl)-amide. According to the packaging information one should reach with Parapic Dog® an 80% anti-tick protection over a period of 48 hours. The active ingredient of Parapic Dog® is DEET, which is the chemical substance N,N-Diethyl-3-methylbenzamide. Products based on the active ingredient DEET, such as Parapic Dog® are widely used against ticks on dogs and cats, and also on humans. Actually, the majority of the currently used anti-tick products is based on DEET, and the mostly used product in dogs is said Parapic Dog®.
Test Protocol: 12 Beagle dogs are divided into groups of 4. To distinguish them, each dog is given a numbered label. Group 1 is treated with a 4.5% 2-propyl-pentanoic acid-bis-(2-methoxy-ethyl)-amide spray (3645mg a.i./m^2). Group 2 is treated with Parapic Dog®-Spray ([…] DEET/3645 mg a.i./m^2). Group 3 remains untreated and serves as a control.
All twelve dogs are taken on 3 successive days to a wooded plot infected with ticks of the genus Ixodes ricinus and are left to run around there. They are free to move around there for 2 hours. An evaluation is made directly after returning from the wood. The two-hour walks are repeated on the next 2 days without the dogs being treated again, and the evaluation is again made directly after returning from the wood. This is effected by carefully searching the fur and the skin of each animal for ticks adhered thereto. The ticks are counted and compared with the number of ticks in the control group.

[2] = system: Amblyomma hebraeum or variegatum (nymphs); experiment: Arena test in vitro against Amblyomma hebraeum or variegatum (nymphs); conditions: even up to a dilution of 3.2 μg/cm^2
Experimental: (§1) This method is carried out in titre plates having 6 wells with a cross-section of 5 cm each, using a computer-supported video system. Each well of the titre plate is lined with a circular filter paper or another suitable carrier material. The substance of formula (I) to be tested is dissolved in methanol, acetonitrile or another suitable solvent, with ultrasound treatment and heating being employed for poorly-soluble substances. In an amount of 1 to 100 μg/cm^2, the dissolved test substance is placed in the centre of the filter paper on a quadrant or circular area of ca. 2.4 cm^2 radius. 4 of the 6 wells are filled with different test substances or with the same test substance in different dilutions (e.g. 1, 3.2, 5, 10 and 20 μg/cm^2) The 5th well is treated with DEET (N,N-diethyl-m-toluamide) as standard substance. The 6th well is filled with the pure solvent and serves as a control. […] In this way, neutral and repellent substances are determined. At the same time, the duration of activity of the test substance is determined and compared with that of the standard. […] This frequency is evaluated statistically and thus quantitatively by the Willcoxon method in a comparison with the control and with the standard. […]

[3] = system: Rhipicephalus sanguineus (nymphs); experiment: Arena test in vitro against Rhipicephalus sanguineus (nymphs); conditions: even up to a dilution of 3.2 μg/cm^2
Experimental: as §1

[4] = system: parasite to be tested, e.g. ticks; experiment: Arena test method for testing vermin-repellent substances; conditions: 1 to 100 μg/cm^2 on filter paper; video evaluation versus control and DEET standard
Experimental: Arena Test Method for Testing Vermin-repellent Substances
This method is carried out in titre plates having 6 wells with a cross-section of 5 cm each, using a computer-supported video system. Each well of the titre plate is lined with a circular filter paper or another suitable carrier material. The substance of formula (I) to be tested is dissolved in methanol, acetonitrile or another suitable solvent, with ultrasound treatment and heating being employed for poorly-soluble substances. In an amount of 1 to 100 μg/cm^2, the dissolved test substance is placed in the centre of the filter paper on a quadrant or circular area of ca. 2.4 cm^2 radius. 4 of the 6 wells are filled with different test substances or with the same test substance in different dilutions (e.g. 1, 3.2, 5, 10 and 20 μg/cm^2) The 5th well is treated with DEET (N,N-diethyl-m-toluamide) as standard substance. The 6th well is filled with the pure solvent and serves as a control. […]
At intervals of 5 seconds, the video camera takes individual pictures of all 6 wells. […] In this way, neutral and repellent substances are determined. At the same time, the duration of activity of the test substance is determined and compared with that of the standard. […] This frequency is evaluated statistically and thus quantitatively by the Willcoxon method in a comparison with the control and with the standard. […]

[5] = system: Boophilus microplus Biarra (larvae); experiment: Arena test in vitro against Boophilus microplus Biarra (larvae); conditions: even up to a dilution of 3.2 μg/cm^2
Experimental: as §1

vermin = conditions: volatilizes rather rapidly; cited from earlier work

| Structure (SMILES) | anti-tick action after 1 day ([1]; single spray application 3645 mg a.i./m^2, 2 hour walk in tick-infested wood, versus untreated control, after 1 day) | anti-tick action after 2 days ([1]; single spray application 3645 mg a.i./m^2, 2 hour walk in tick-infested wood, versus untreated control, after 2 days) | anti-tick action after 3 days ([1]; single spray application 3645 mg a.i./m^2, 2 hour walk in tick-infested wood, versus untreated control, after 3 days) | anti-tick activity in the course of 3 successive days (in words) [1] | long-term action against Amblyomma nymphs [2] | long-term action against Rhipicephalus sanguineus nymphs [3] | repellent activity in arena test [4] | long-term action against Boophilus larvae [5] | time after which reapplication is needed (vermin) |
| --- | --- | --- | --- | --- | --- | --- | --- | --- | --- |
| CCCC(CCC)C(=O)N(CCOC)CCOC [Compound no. 1.31, 2-propyl-pentanoic acid-bis-(2-methoxyethyl)-amide] | 100% | 98% | 79% | very good results | especially marked long-term action | especially marked long-term action | particularly active | especially marked long-term action |  |
| CCN(CC)C(=O)c1cccc(C)c1 [DEET, N,N-diethyl-m-toluamide, reference compound] |  |  |  | drops abruptly after 2 days |  |  |  |  | ca. 2 hours |
